Experimental data reported in paper PMC8620685, “Effect of Selected Silyl Groups on the Anticancer Activity of 3,4-Dibromo-5-Hydroxy-Furan-2(5H)-One Derivatives” (Pharmaceuticals, 2021).
Where two headings read alike, the source gives them in different places.

What was measured:
MCF-7 = experiment: MTT assay, MCF-7; assay type: cell-based, human; conditions: Homo sapiens, MCF7, 72 h, read-out: IC50 (cytotoxicity), MCF-7, MTT, 72 h incubation
Description: (§1) The in vitro antitumor activities of the MBA and its derivatives (Table 2) were assayed against a panel of human cancer cell lines (HCT116, HCT-116 ^−/−p53, HT-29, MCF-7, SJSA-1, U2OS, HepG2 and Hep3B) using the MTT assay. As a reference drug we used 5-fluorouracil (5-FU). […] On the basis of in vitro antiproliferative activities, compounds 3b and 3c were selected for further mechanistic studies in the HCT-116 cell line.
(§2) Human cells lines: colon cancer (HCT-116 wt, HT-29), non-small lung carcinoma (A549), and bronchial epithelial cells (BEAS-2B) were obtained from American Type Culture Collection (ATCC, Manassas, VA, USA). Isogenic cell line HCT 116 p53^−/− (deleted both p53 alleles) were a gift from Dr. Bert Vogelstein. Other cell lines, namely MCF-7, SJSA-1, U2OS, HepG2, and Hep3B were received from the collection stored at Centre of Biotechnology of Silesian University of Technology. All cells were grown in DMEM with a high glucose medium (Sigma-Aldrich, Taufkirchen, Germany) supplemented with 10% (v/v) inactivated fetal bovine serum (FBS) (EURx, Gdańsk, Poland) and 1% antibiotics (10,000 μg/mL of streptomycin and 10,000 units/ml of penicillin) (Sigma-Aldrich, Taufkirchen, Germany) at 37 °C in humidified 5% CO2. The maximum concentration of DMSO in the culture media was 0.4%.
(§3) 5 × 10^3 cells per well for the MCF-7 cell line and 2.5 × 10^3 cells per well for the other cell lines were seeded in 96-well plates to adhere for 24 h. Afterward, the cells were treated with tested compounds. After 72 hours of incubation, 50 μL 0.5 mg/ml solution of MTT (3-(4,5-dimethylthiazol-2-yl)-2,5-diphenyl-2H-tetrazolium bromide) were added to each well and the plates were incubated for 3 h at 37 °C. Next, the MTT solution was removed from the plates and formed formazan crystals were dissolved in 2-propanol (Avantor Performance Materials, Gliwice, Poland) containing 0.04 M hydrochloric acid (Avantor Performance Materials, Gliwice, Poland). The absorbance was measured at 570 nm wavelength using a multiwall plate reader (BioTek, Winooski, VT, USA). The experiment was performed at a minimum of 3 independent replicates. Cell viability was set as a percentage versus vehicle control. IC50 was defined as a concentration of a drug that decreased cell viability by 50% relative to the untreated control.

Hep3B = experiment: MTT assay, Hep3B; assay type: cell-based; conditions: Homo sapiens, read-out: IC50 (cytotoxicity), Hep3B
Description: as §1, §2, §3

[1] = MTT assay, normal bronchial epithelium cell line BEAS-2B; assay type: cell-based; conditions: human
Description: (§4) One of the major drawbacks of currently used anticancer drugs is their low selectivity, which often leads to undesired side effects that may be harmful to patients. Overcoming this challenging task requires special attention at the pre-clinical development level. To check whether silyl group incorporation may affect the selectivity of compounds towards cancer cells, MBA and all its new silyl derivatives were tested for their efficacy on noncancerous BEAS-2B and cancerous A549 cells line. […] In contrast, compounds 3a and 3d were more cytotoxic to A549 cells with SI values 6.05 and 1.72, respectively. Strikingly, those two compounds have similar cLogP values 3.08 and 3.22, respectively.
as §2, §3

HT-29 = experiment: MTT assay, HT-29; assay type: cell-based; conditions: Homo sapiens, HT-29, 72 h, read-out: IC50 (cytotoxicity), HT-29
Description: as §1, §2, §3

A549 = experiment: MTT assay, NSCLC cell line A549; assay type: cell-based, human; conditions: for IC50: Homo sapiens, read-out: IC50 (cytotoxicity), A549; for SI: selectivity, A549 versus BEAS-2B
Description: as §4, §2, §3

HCT 116 p53−/− = experiment: MTT assay, HCT 116 p53−/−; assay type: cell-based; conditions: Homo sapiens, HCT-116, 72 h, read-out: IC50 (cytotoxicity), HCT 116 p53−/−
Description: as §1, §2, §3

cleaved caspase-3 = experiment: Human Apoptosis Proteome Profiler array, cleaved caspase-3; assay type: cell-based; conditions: HCT-116, 1 h exposure, 2 × IC50 (3b at 30.2 μM)
Text: To explore in detail the molecular mechanism of apoptosis induction by compounds 3b and 3c, we employed Human Apoptosis Proteome Profiler arrays that allow quantification of apoptosis-related biomarkers (Figure 3C). […] Collectively, it can be concluded that silyl derivative 3b promotes cell death in HCT 116 cells by the alteration of expression levels of survivin and activation of caspase-3.
The Human Apoptosis Array Kit (R&D Systems, Abingdon, UK) was used to determine the levels of expression of apoptosis-related proteins. 2.5 × 10^5 HCT 116 wt cells were seeded on 100 mm dishes (Nunc, ThermoFisher, Waltham, MA, USA) and allowed to attach for 24 h. Then the medium was replaced with tested compounds at a concentration corresponding 2 × IC50 value and the cells were incubated in 37 °C. After 60 min the cells were lysed and the lysates were clarified by centrifugation for 30 min at 14,000× g. The total protein concentration was measured using the Protein Quantification Kit-Rapid (Sigma-Aldrich, Taufkirchen, Germany) according to the manufacturer’s instruction. The next steps followed instructions from the manufacturer of the Human Apoptosis Array Kit. The membranes were then scanned in the G:Box trans illuminator (Syngene, Cambridge, UK) and the protein expression levels were quantified by densitometric analysis using ImageJ software.

HCT-116 cells = experiment: Annexin V-FITC/PI apoptosis assay; assay type: cell-based, human
Description: To verify this thesis, we utilized annexin-V/PI double staining of cells, which were subsequently subjected to flow cytometric analysis.
The HCT 116 cells were seeded in 6-well plate (Nunc, ThermoFisher, Waltham, MA, USA) at a density of 5 × 10^4 cells/well and allowed to attach. After 24 h the medium was replaced with tested compounds. The cells were then incubated for 24 h at 37 °C. Next, both floating and adherent cells were harvested and centrifuged at 600× g. The cells were washed with PBS (phosphate buffered saline) (Sigma-Aldrich, Taufkirchen, Germany) and we followed instructions from the manufacturer of the Annexin V-FITC Apoptosis Detection Kit (Biotool, Jupiter, FL, USA). Fluorescence was measured using a Becton Dickinson FACS Aria III sorter (BD Company, San Diego, CA, USA). Experiments were repeated at least twice. Data were analyzed using FCE Express 7 Software (DeNovo Software, Pasadena, CA, USA).

[2] = BEAS-2B cells (noncancerous bronchial epithelial cells), MTT, 72 h incubation, noncancerous cells, read-out: IC50 (cytotoxicity), BEAS-2B

SMILES	IC50 (MCF-7)	IC50 (Hep3B; MTT, 72 h incubation)	IC50 at 72 h [1, 2]	IC50 (HT-29)	IC50 (A549; A549, MTT, 72 h incubation)	SI (A549)	IC50 (HCT 116 p53−/−)	cleaved caspase-3 level (caspase-3 activation) (cleaved caspase-3)	apoptotic (death) cells in total, annexin-V+/PI− plus annexin-V+/PI+ (HCT-116 cells; 20 μM, 24 h, HCT-116)	induction of apoptosis / cell death in HCT-116 (HCT-116 cells; HCT-116, statement in discussion)	IC50 (Hep3B; 72 h)	IC50 at 72 h [1]	IC50 (A549; A549, 72 h)	proapoptotic activity (HCT-116 cells; 20 μM, 24 h, HCT-116)
CC(C)[Si](OC1OC(=O)C(Br)=C1Br)(C(C)C)C(C)C (stereo not shown) [Compound 3b, 3,4-Dibromo-5-(triisopropylsilyloxy)-furan-2(5H)-one]	7.7 ± 0.9 µM	21.3 ± 3.5 µM	12.5 ± 1.4 µM	7.3 ± 0.8 µM	30.4 ± 4.2 µM	0.41	10.8 ± 1 µM	significant up-regulation of cleaved caspase-3	roughly 30%	rapidly triggered cell death				
CC(C)(C)[Si](OC1OC(=O)C(Br)=C1Br)(c1ccccc1)c1ccccc1 (stereo not shown) [Compound 3c, 3,4-Dibromo-5-(tert-butyldiphenylsilyloxy)-furan-2(5H)-one]	10.9 ± 0.7 µM	65.6 ± 2.2 µM	20.3 ± 0.6 µM	3.9 ± 0.2 µM	29.1 ± 1 µM	0.70	4 ± 0.3 µM	neither the MBA nor compound 3c induced caspase-3 activation	18.5%					
O=C1OC(O)C(Br)=C1Br (stereo not shown) [MBA, 3,4-dibromo-5-hydroxyfuran-2(5H)-one, reference compound]	142 ± 22.6 µM			97.1 ± 6.6 µM		0.2	25.4 ± 6 µM	neither the MBA nor compound 3c induced caspase-3 activation			125 ± 10.5 µM	39.7 ± 9.7 µM	203 ± 0.3 µM	negligible proapoptotic activity
